Reference: patent publication US8242280B2, “Fused ring heterocycle kinase modulators” (SGX Pharmaceuticals, Inc., priority 2007, dated 2012)

Columns and labels:
[1] = molecular target: T1, unphosphorylated T315I Abl kinase domain (Mus musculus, UniProt P00520, T315I); test: c-Abl T315I 0P bioassay (pyruvate kinase/lactate dehydrogenase coupled enzyme assay); assay type: biochemical; settings: zero phosphorylation state (0P), 10 μM ATP, read-out: AbI T315I 0P IC50
T1 construct: purified and unphosphorylated T315I Abl kinase domain; made in house; host or cells: E. coli BL21(DE3) (Codon+RIL or pSA0145 strain)
T1 sequence (P00520 242-493 T315I limits assumed): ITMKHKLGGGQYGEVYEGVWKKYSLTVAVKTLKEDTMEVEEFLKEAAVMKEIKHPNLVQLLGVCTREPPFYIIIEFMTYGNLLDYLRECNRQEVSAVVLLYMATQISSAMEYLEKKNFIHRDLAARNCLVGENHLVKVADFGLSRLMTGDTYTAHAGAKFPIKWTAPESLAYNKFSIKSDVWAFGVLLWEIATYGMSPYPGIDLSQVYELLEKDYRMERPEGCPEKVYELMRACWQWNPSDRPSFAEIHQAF

Ba/F3 cells, ABL1 WT = Ba/F3 cells, ABL1 WT (Homo sapiens, UniProt P00519); test: 96-well XTT cell survival assay, Ba/F3 ABL1 WT; assay type: cell-based; settings: 72 hours, read-out: ABL1 WT XTT [Ba/F3] IC50
Summary of the method: (§1)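 Ba/F3 cells carrying wild-type or T315I ABL1 were seeded at 5000-8000 per well with graded compound concentrations in duplicate and grown 72 hours at 37° C. Survival was read by XTT/PMS reduction after a further 2-6 h, as absorbance at 405 nm with 650 nm background correction.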

Ba/F3 cells, ABL1 T315I = Ba/F3 cells, ABL1 T315I (Homo sapiens, UniProt P00519, T315I, cells depend on it); test: 96-well XTT cell survival assay, Ba/F3 ABL1 T315I; assay type: cell-based; settings: 72 hours, read-out: ABL1 T315I XTT [Ba/F3] IC50
Summary of the method: as §1

SMILES	IC50 [1]	GI50 (Ba/F3 cells, ABL1 WT)	GI50 (Ba/F3 cells, ABL1 T315I)
COc1ccccc1-c1n[nH]c2ncc(-c3cccc(C(O)CO)c3)cc12 (stereo not drawn)	< 50 nM	< 1000 nM	> 1000 nM
COc1ccccc1-c1c[nH]c2ncc(-c3cccc(C(O)CN)c3)cc12 (stereo not drawn)	< 50 nM	> 1000 nM	> 1000 nM
CNC(=O)C(O)c1cccc(-c2cnc3[nH]nc(-c4ccccc4OC)c3c2)c1 (stereo not drawn)	< 50 nM	< 1000 nM	< 1000 nM
COc1ccccc1-c1n[nH]c2ncc(-c3cccc(C(O)C(=O)N4CC(O)C4)c3)cc12 (stereo not drawn)	< 50 nM	> 1000 nM	> 1000 nM
COc1ccccc1-c1c[nH]c2ncc(-c3cccc(C(O)C(=O)N(C)C)c3)cc12 (stereo not drawn)	< 50 nM	< 1000 nM	< 1000 nM
COc1ccccc1-c1c[nH]c2ncc(-c3cccc(C(O)C(=O)N(C)CCN(C)C)c3)cc12 (stereo not drawn)	< 50 nM	< 1000 nM	< 1000 nM
COc1ccccc1-c1c[nH]c2ncc(-c3cccc(C(O)C(=O)N4CC(O)C4)c3)cc12 (stereo not drawn)	< 50 nM	< 1000 nM	> 1000 nM
COc1ccccc1-c1n[nH]c2ncc(-c3cccc(C(O)C(N)=O)c3)cc12 (stereo not drawn)	< 50 nM	< 1000 nM	< 1000 nM
COc1ccccc1-c1n[nH]c2ncc(-c3cccc(C(O)C(=O)N(C)C4CCN(C)C4)c3)cc12 (stereo not drawn)	< 50 nM	< 1000 nM	< 1000 nM
COc1ccccc1-c1n[nH]c2ncc(-c3cccc(C(O)C(=O)N(C)C4CCS(=O)(=O)C4)c3)cc12 (stereo not drawn)	< 50 nM	< 1000 nM	> 1000 nM
COc1ccccc1-c1c[nH]c2ncc(-c3cccc(C(N)C(=O)N(C)C)c3)cc12 (stereo not drawn)	< 50 nM	< 1000 nM	< 1000 nM
COc1ccccc1-c1c[nH]c2ncc(-c3cccc(C(N)C(=O)N(C)CCN(C)C)c3)cc12 (stereo not drawn)	< 50 nM	> 1000 nM	> 1000 nM
CN(C)C(=O)C(O)c1cc(-c2cnc3[nH]cc(-c4ccccc4F)c3c2)cnc1N (stereo not drawn)	< 50 nM	< 1000 nM	< 1000 nM
CN(C)C(=O)C(O)c1cncc(-c2cnc3[nH]cc(-c4ccnn4-c4ccccc4)c3c2)c1 (stereo not drawn)	< 50 nM	< 1000 nM	> 1000 nM
Cc1n[nH]cc1-c1c[nH]c2ncc(-c3cncc(C(O)C(=O)N(C)C)c3)cc12 (stereo not drawn)	< 50 nM	> 1000 nM	> 1000 nM
Cc1n[nH]c(C)c1-c1c[nH]c2ncc(-c3cncc(C(O)C(=O)N(C)C)c3)cc12 (stereo not drawn)	< 50 nM	> 1000 nM	> 1000 nM
COc1ccccc1-c1c[nH]c2ncc(-c3cncc(C(O)C(N)=O)c3)cc12 (stereo not drawn)	< 50 nM	> 1000 nM	> 1000 nM
CN(C)C(=O)C(O)c1cncc(-c2cnc3[nH]cc(-c4ccccc4OC4CC4)c3c2)c1 (stereo not drawn)	< 50 nM	< 1000 nM	< 1000 nM
COc1ccccc1-c1n[nH]c2ncc(-c3cccc(CO)c3)cc12	> 500 nM	< 1000 nM	< 1000 nM
COc1ccccc1-c1n[nH]c2ncc(-c3cccc(CO)n3)cc12	< 50 nM	< 1000 nM	> 1000 nM
CN(C)C(=O)C(O)c1cncc(-c2cnc3[nH]cc(-c4cccc(Cl)c4)c3c2)c1 (stereo not drawn) [drawing 431]	< 50 nM	< 1000 nM	< 1000 nM
CN(C)C(=O)C(O)c1cncc(-c2cnc3[nH]cc(-c4ccnn4C)c3c2)c1 (stereo not drawn) [drawing 464]	50 to 500 nM	> 1000 nM	> 1000 nM
CN(C)C(=O)C(O)c1cncc(-c2cnc3[nH]cc(-c4ccnn4C)c3c2)c1 (stereo not drawn) [drawing 465]	< 50 nM	> 1000 nM	> 1000 nM
